From ChEMBL document CHEMBL3244408, “Synthesis and analgetic activity of some benzomorphan analogues” (1978)

The compounds below were run on Mus musculus (assay: Analgetic activity in sc dosed albino DD mouse by tail pressure stimuli method).
Type: functional
Compound `Br.CN1CC2CC1Cc1ccc(O)cc12` (stereo unspecified) has an ED50 of 43 mg/kg. For `CC(O)C(=O)O.CN1CC2Cc3ccc(O)cc3C1C2` (stereo unspecified), the ED50 was 29.1 mg/kg. For `CN1CCC2Cc3ccc(O)cc3C1C2` (stereo unspecified), the ED50 was 17.2 mg/kg. For `CN1CCCC2Cc3ccc(O)cc3C1C2.Cl.O` (stereo unspecified), the ED50 was 15 mg/kg. With `Br.CN1CCCC2(C)CC1Cc1ccc(O)cc12` (stereo unspecified) the ED50 was 4.1 mg/kg. `Br.C[C@@H]1C2Cc3ccc(O)cc3C1(C)CCN(C)C2` (stereo partly specified) was tested, and the ED50 was 1 mg/kg. For `Br.CN1CCC2Cc3ccc(O)cc3C(C2)C1` (stereo unspecified), the ED50 was 38.8 mg/kg. `Br.CN1CC2Cc3ccc(O)cc3C(C)(C2)C1` (stereo unspecified) was tested, and the ED50 was 8.4 mg/kg. `CC1NCC2Cc3ccc(O)cc3C1C2` (stereo unspecified) showed an ED50 of 4.5 mg/kg. In the case of `COc1ccc2c3c1O[C@H]1[C@@H](O)C=C[C@H]4[C@@H](C2)N(C)CC[C@@]341.COc1ccc2c3c1O[C@H]1[C@@H](O)C=C[C@H]4[C@@H](C2)N(C)CC[C@@]341.O.O=P(O)(O)O.O=P(O)(O)O` [CODEINE PHOSPHATE], the ED50 is reported as 9.2 mg/kg. `CN1CC[C@]23c4c5ccc(O)c4O[C@H]2[C@@H](O)C=C[C@H]3[C@H]1C5.Cl` [MORPHINE HYDROCHLORIDE] showed an ED50 of 1.2 mg/kg.
